# In patent publication US12336981B2, “Compounds and compositions for the inhibition of NAMPT” (Valo Health, Inc., priority 2010, dated 2025):
# Several values for one entry are separate records, joined by “and”; a condition that tells them apart may be missing. Equal values may be shown once.
# Molecular target: T1, NAMPT (Homo sapiens, UniProt P43490)
# T1 construct: His tag; host or cells: E. coli
# Assay: Biochemical inhibition assay: NAMPT enzymatic reaction, NMN quantified by mass spectrometry
# Details: NAMPT enzymatic assay; read-out: Biochem IC50
# Experimental: Biochemical Inhibition Assay
# NAMPT Protein Purification
# Recombinant His-tagged NAMPT was produced in E. coli cells, purified over a Ni column, and further purified over a size-exclusion column by XTAL Biostructures.
# The NAMPT Enzymatic Reaction
# The NAMPT enzymatic reactions were carried out in Buffer A (50 mM Hepes pH 7.5, 50 mM NaCl, 5 mM MgCl2, and 1 mM THP) in 96-well V-bottom plates. The compound titrations were performed in a separate dilution plate by serially diluting the compounds in DMSO to make a 100× stock. […] The compound and enzyme mix was incubated for 15 minutes at room temperature, then 10 μL of 10× substrate and co-factors in Buffer A were added to the test well to make a final concentration of 1 μM NAM, 100 μM 5-Phospho-D-ribose 1-diphosphate (PRPP), and 2.5 mM Adenosine 5′-triphosphate (ATP). The reaction was allowed to proceed for 30 minutes at room temperature, then was quenched with the addition of 11 μL of a solution of formic acid and L-Cystathionine to make a final concentration of 1% formic acid and 10 μM L-Cystathionine. Background and signal strength was determined by addition (or non-addition) of a serial dilution of NMN to a pre-quenched enzyme and cofactor mix.
# A mass spectrometry-based assay was used to measure the NAMPT reaction product (NMN) and the internal control (L-Cystathionine). NMN and L-Cystathionine were detected using the services of Biocius Lifesciences with the RapidFire system. In short, the NMN and L-Cystathionine are bound to a graphitic carbon cartridge in 0.1% formic acid, eluted in 30% acetonitrile buffer, and injected into a Sciex 4000 mass spectrometer. The components of the sample were ionized with electrospray ionization and the positive ions were detected. […] The fragments are quantified and the analyzed by the following method.
# First the NMN signal is normalized to the L-Cystathionine signal by dividing the NMN signal by the L-Cystathionine signal for each well. The signal from the background wells are averaged and subtracted from the test plates. […] IC50s are Determined Using Excel and this Formula.
# T1 sequence (P43490 whole entry): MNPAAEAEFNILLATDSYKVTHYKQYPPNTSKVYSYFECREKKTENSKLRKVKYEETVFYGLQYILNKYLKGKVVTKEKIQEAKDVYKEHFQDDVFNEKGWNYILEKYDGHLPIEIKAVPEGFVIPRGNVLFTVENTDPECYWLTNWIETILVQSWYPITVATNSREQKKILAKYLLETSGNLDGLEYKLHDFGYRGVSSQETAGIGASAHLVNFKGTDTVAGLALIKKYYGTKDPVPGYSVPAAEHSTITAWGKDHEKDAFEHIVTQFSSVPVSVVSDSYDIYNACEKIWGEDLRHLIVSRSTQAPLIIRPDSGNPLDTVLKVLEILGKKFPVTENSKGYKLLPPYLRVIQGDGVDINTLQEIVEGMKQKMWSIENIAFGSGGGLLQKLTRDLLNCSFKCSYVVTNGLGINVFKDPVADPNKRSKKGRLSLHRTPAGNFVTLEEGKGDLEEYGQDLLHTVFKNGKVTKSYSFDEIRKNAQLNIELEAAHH
row,Compound,IC50
1,"Cn1cc2ccc(S(=O)(=O)c3ccc(CNC(=O)c4cc5cnccc5[nH]4)cc3)cc2n1 [N-{[4-(2-methyl-2H-indazole-6-sulfonyl)phenyl]methyl}-1H-pyrrolo[3,2-c]pyridine-2-carboxamide]",2.5 nM
2,O=C(NCc1ccc(S(=O)(=O)c2ccc(Cn3ccnc3)cc2)cc1)c1cc2ccncc2o1,19 nM
3,CCS(=O)(=O)c1cccc(S(=O)(=O)c2ccc(CNC(=O)c3cc4ccncc4o3)cc2)c1,2.7 nM
4,CC(C)Oc1ccc(S(=O)(=O)c2ccc(CNC(=O)c3cnc4nccn4c3)cc2)cc1,4.3 nM
5,CN(C)S(=O)(=O)c1cccc(S(=O)(=O)c2ccc(CNC(=O)c3cc4ccncc4o3)cc2)c1,2 nM
6,"O=C(NCc1ccc(S(=O)(=O)c2ccc(F)c(OCC(F)(F)F)c2)cc1)c1cnc2[nH]ncc2c1 [N-[(4-{[4-fluoro-3-(2,2,2-trifluoroethoxy)benzene]sulfonyl}phenyl)methyl]-1H-pyrazolo[3,4-b]pyridine-5-carboxamide]",10 nM
7,Cc1nc(-c2cccc(S(=O)(=O)c3ccc(CNC(=O)c4cc5ccncc5o4)cc3)c2)no1,7.9 nM
8,"O=C(NCc1ccc(S(=O)(=O)c2cncc3ccccc23)cc1)c1cnc2nccn2c1 [N-{[4-(isoquinoline-4-sulfonyl)phenyl]methyl}imidazo[1,2-a]pyrimidine-6-carboxamide]",1.6 nM
9,O=C(NC1CCCC1)c1cccc(S(=O)(=O)c2ccc(CNC(=O)c3cc4ccncc4o3)cc2)c1,6.6 nM
10,"O=C(NCc1ccc(S(=O)(=O)c2cc(C(F)(F)F)ccn2)cc1)c1ccc2nccn2c1 [N-({4-[4-(trifluoromethyl)pyridine-2-sulfonyl]phenyl}methyl)imidazo[1,2-a]pyridine-6-carboxamide]",19.7 nM
11,"O=C(NCc1ccc(S(=O)(=O)c2cccc3c2OCC3)cc1)c1cnc2[nH]ncc2c1 [N-{[4-(2,3-dihydro-1-benzofuran-7-sulfonyl)phenyl]methyl}-1H-pyrazolo[3,4-b]pyridine-5-carboxamide]",24.8 nM
12,O=C(NCc1ccc(S(=O)(=O)c2ccc(F)c(C(F)(F)F)c2)cc1)c1cnc2nccn2c1,8 nM
13,O=C(NCc1ccc(S(=O)(=O)c2cccc(N3CCOCC3)c2)cc1)c1cc2ccncc2[nH]1,20.7 nM and 8.4 nM
14,"O=C(NCc1ccc(S(=O)(=O)c2cnc3ccccc3c2)cc1)c1cc2ccncc2o1 [N-{[4-(quinoline-3-sulfonyl)phenyl]methyl}furo[2,3-c]pyridine-2-carboxamide]",4.2 nM
15,"O=C(NCc1ccc(S(=O)(=O)c2cncc(Cl)c2)cc1)c1ccc2nccn2c1 [N-{[4-(5-chloropyridine-3-sulfonyl)phenyl]methyl}imidazo[1,2-a]pyridine-6-carboxamide]",24.4 nM
16,"COc1cccc(S(=O)(=O)c2ccc(CNC(=O)c3cc4ccncc4o3)cc2)n1 [N-{[4-(6-methoxypyridine-2-sulfonyl)phenyl]methyl}furo[2,3-c]pyridine-2-carboxamide]",2.5 nM
17,O=C(NCc1ccc(S(=O)(=O)c2cccc3c2sc2ccccc23)cc1)c1cc2cnccc2[nH]1,3.5 nM
18,CCCS(=O)(=O)Nc1cccc(S(=O)(=O)c2ccc(CNC(=O)c3cc4ccncc4s3)cc2)c1,1.5 nM

# Same assay, conditions: NAMPT enzymatic reaction; read-out: Biochem IC50
row,Compound,IC50
1,"O=C(NCc1ccc(S(=O)(=O)c2ccccc2)cc1)N1CCc2nocc2C1 [N-{[4-(benzenesulfonyl)phenyl]methyl}-4H,5H,6H,7H-[1,2]oxazolo[4,3-c]pyridine-5-carboxamide]",> 2000 nM
2,COc1ccc(Cl)cc1S(=O)(=O)c1ccc(CNC(=O)c2ccc3nccn3c2)cc1,19.1 nM
3,Cc1ccc(S(=O)(=O)c2ccc(CNC(=O)c3cnc4[nH]ncc4c3)cc2)cc1Cl,6.1 nM
4,Cc1cc(F)cc(S(=O)(=O)c2ccc(CNC(=O)c3cc4ccncc4o3)cc2)c1,3.4 nM
5,"N-({4-[(2,4-dichloro-3-methoxybenzene)sulfonyl]phenyl}methyl)-1H-pyrazolo[3,4-b]pyridine-5-carboxamide",20 nM
6,CC(C)(C)c1cccc(S(=O)(=O)c2ccc(CNC(=O)c3ccc4nccn4c3)cc2)c1,9.7 nM
7,CCCOc1ccc(S(=O)(=O)c2ccc(CNC(=O)c3cc4cnccc4[nH]3)cc2)cc1Cl,74 nM
8,CCCOc1ccc(Cl)cc1S(=O)(=O)c1ccc(CNC(=O)c2ccc3nccn3c2)cc1,8 nM
9,"O=C(NCc1ccc(S(=O)(=O)c2ccccc2OC(F)(F)F)cc1)c1ccc2nccn2c1 [N-(4-(2-(trifluoromethoxy)phenylsulfonyl)benzyl)imidazo[1,2-a]pyridine-6-carboxamide]",8 nM

# Tested on: A2780 cells
# Assay: In-vitro cell proliferation assay (SRB), A2780 cells
# Assay type: cell-based
# Details: A2780 cells, 72 hours, SRB; read-out: A2780 IC50
# Experimental: In-Vitro Cell Proliferation Assay
# After overnight incubation at 37° C. and 5% CO2, the compound titrations were performed in a separate dilution plate by serially diluting the compounds in DMSO to make a 1000× stock. The compounds were then further diluted to 10× final concentration in culture media, whereupon 20 μL of each dilution was added to the plated cells with controls (e.g. DMSO and blank) to make a final volume of 200 μL. The final DMSO concentration in each well was 0.1%. The plates were then incubated for 72 hours at 37° C. in a 5% CO2 incubator. The number of viable cells was then assessed using sulforhodamine B (SRB) assay. Cells were fixed at 4° C. for 1 hour with the addition of 50 μL 30% trichloroacetic acid (TCA) to make a final concentration of 6% TCA. The plates were washed four times with H2O and allowed to dry for at least 1 hour, whereupon 100 μL of a 4% SRB in 1% acetic acid solution was added to each well and incubated at room temperature for at least 30 minutes. The plates were then washed three times with 1% acetic acid, dried, and treated with 100 μL of 10 mM Tris-Base solution. The plates were then read in a microplate reader at an absorbance of 570 nm. Background was generated on a separate plate with media only.
# Method for Determining % Inhibition
# First, the signals from the background plate are averaged, then the background was subtracted from the test plates.
# wherein X denotes the compound concentration 1, Y denotes the compound concentration 2, XX denotes the % inhibition at compound concentration 1 (X), and YY denotes the % inhibition at compound concentration 2 (Y).
row,Compound,IC50
1,Cc1c(F)cccc1S(=O)(=O)c1ccc(CNC(=O)c2cc3ccncc3s2)cc1,21.4 nM

# Same assay, conditions: Homo sapiens, A2780, 72 h, A2780 cells, 72 hours, SRB assay; read-out: A2780 IC50
row,Compound,IC50
1,"O=C(NCc1ccc(S(=O)(=O)c2ccccc2)cc1)N1CCc2nocc2C1 [N-{[4-(benzenesulfonyl)phenyl]methyl}-4H,5H,6H,7H-[1,2]oxazolo[4,3-c]pyridine-5-carboxamide]",> 2000 nM
2,"O=C(NCc1ccc(S(=O)(=O)N2CCCCC2)cc1)c1cc2cnccc2[nH]1 [N-{[4-(piperidine-1-sulfonyl)phenyl]methyl}-1H-pyrrolo[3,2-c]pyridine-2-carboxamide]",200 nM

# Same assay, conditions: Homo sapiens, A2780, 72 h, A2780 cells, 72 hours, SRB; read-out: A2780 IC50
row,Compound,IC50
1,O=C(NCc1ccc(S(=O)(=O)c2cccc(-c3ncccn3)c2)cc1)c1cnc2nccn2c1,13 nM
2,O=C(NCc1ccc(S(=O)(=O)c2ccc(C(=O)N3CCCC3)cc2)cc1)c1cc2ccncc2s1,1.7 nM
3,"O=C(NCc1ccc(S(=O)(=O)c2cc(F)cc(F)c2)cc1)c1ccc2nccn2c1 [N-({4-[(3,5-difluorobenzene)sulfonyl]phenyl}methyl)imidazo[1,2-a]pyridine-6-carboxamide]",1.5 nM
4,"O=C(NCc1ccc(S(=O)(=O)c2ccc(C(=O)N3CCCC3)cc2)cc1)c1cc2ccncc2o1 [N-{[4-({4-[(pyrrolidin-1-yl)carbonyl]benzene}sulfonyl)phenyl]methyl}furo[2,3-c]pyridine-2-carboxamide]",1.4 nM
5,COc1cc(-n2cccn2)ccc1S(=O)(=O)c1ccc(CNC(=O)c2cnc3nccn3c2)cc1,8.7 nM
6,"CCOc1cccc(S(=O)(=O)c2ccc(CNC(=O)c3cc4ccncc4s3)cc2)c1 [N-({4-[(3-ethoxybenzene)sulfonyl]phenyl}methyl)thieno[2,3-c]pyridine-2-carboxamide]",2.9 nM
7,CC(C)COc1cccc(S(=O)(=O)c2ccc(CNC(=O)c3cc4ccncc4s3)cc2)c1,25.2 nM
8,COCc1cccc(S(=O)(=O)c2ccc(CNC(=O)c3cnc4nccn4c3)cc2)c1,13.8 nM
9,N#CC1(c2ccc(S(=O)(=O)c3ccc(CNC(=O)c4cnc5nccn5c4)cc3)cc2)CCCC1,4.7 nM
10,O=C(NCc1ccc(S(=O)(=O)c2ccc(C(=O)N3CCCC3)cc2)cc1)c1cnc2[nH]ncc2c1,9.3 nM
11,"Cc1cccc(S(=O)(=O)c2ccc(CNC(=O)c3cnc4nccn4c3)cc2)c1F [N-({4-[(2-fluoro-3-methylbenzene)sulfonyl]phenyl}methyl)imidazo[1,2-a]pyrimidine-6-carboxamide]",21.5 nM
12,"Cn1cc2ccc(S(=O)(=O)c3ccc(CNC(=O)c4cnc5[nH]ncc5c4)cc3)cc2n1 [N-{[4-(2-methyl-2H-indazole-6-sulfonyl)phenyl]methyl}-1H-pyrazolo[3,4-b]pyridine-5-carboxamide]",7 nM
13,COc1cc(OC)cc(S(=O)(=O)c2ccc(CNC(=O)c3ccc4nccn4c3)cc2)c1,1.5 nM
14,"O=C(NCc1ccc(S(=O)(=O)c2cccc3cc[nH]c23)cc1)c1cnc2[nH]ncc2c1 [N-{[4-(1H-indole-7-sulfonyl)phenyl]methyl}-1H-pyrazolo[3,4-b]pyridine-5-carboxamide]",43.2 nM
15,O=C(NCc1ccc(S(=O)(=O)c2ccc(-c3ccccc3)cc2)cc1)c1cnc2nccn2c1,7.6 nM

# Same assay, conditions: Homo sapiens; A2780 cells, 72 hours, SRB; read-out: A2780 IC50
row,Compound,IC50
1,O=C(NCc1ccc(S(=O)(=O)c2cccc(C(F)(F)F)c2)cc1)c1cnc2[nH]ncc2c1,10.4 nM
